Where two headings read alike, the source gives them in different places.

This is an account of results in patent publication US20250228239A1, “MOLECULES HAVING PESTICIDAL UTILITY, AND INTERMEDIATES, COMPOSITIONS, AND PROCESSES, RELATED THERETO” (priority 2024, published 2025).

Assay type in all cases: in vivo
The subject of experiment [1] is Green Peach Aphid (Myzus persicae, MYZUPE). Briefly: Bioassays on Green Peach Aphid (GPA), foliar spray on cabbage seedlings. Particulars: 72 h. In short, it runs like this: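 Percent control (Abbott-corrected versus solvent-sprayed plants) comes from live-aphid counts three days after treatment at about 25° C. Test solution at 200 ppm was sprayed to runoff onto both leaf surfaces of cabbage seedlings infested a day earlier with 20-50 aphids; four replicate pots.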

Experiment [2] concerns Cabbage Looper (Trichoplusia ni, TRIPNI). Briefly: Bioassays on Cabbage Looper (CL), 128-well diet tray assay. Particulars: Trichoplusia ni. In short, it runs like this: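 One to five second-instar larvae per well on artificial diet surface-treated with 50 μg/cm^2 test molecule (applied in 90:10 acetone-water, dried). Held 5–7 days at 25° C, 14:10 light-dark; percent mortality recorded per well and averaged over eight wells.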

Experiment [3] relates to Yellow Fever Mosquito (Aedes aegypti, AEDSAE). Particulars: for YFM rating: Table ABC / ABC-DP rating. The essentials:
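Compounds from 4000 ppm DMSO stocks were diluted in 90:10 water/acetone and dispensed into wells, then infested with about 1-day-old larvae in liver-powder water. Covered plates were held at room temperature for 3 days and each well was scored for mortality against a rating scale; six replicate plates per compound.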

In experiment [4] the test system is Beet Armyworm (Spodoptera exigua, LAPHEG). Briefly: Bioassays on Beet Armyworm (BAW), 128-well diet tray assay. To be noted: Spodoptera exigua. In short, it runs like this: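 Second-instar larvae, one to five per well, were placed on artificial diet surface-treated with 50 μg/cm^2 compound in 90:10 acetone-water, eight wells per treatment. Trays were held 5–7 days at 25 °C, 14:10 light-dark. Percent mortality per well was averaged over eight wells.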

Setting [5] is: Table ABC: Biological Results, species GPA, read-out: GPA.
[6] abbreviates: Table ABC: Biological Results, species CL, read-out: CL.
Setting [7] is: Table ABC: Biological Results, species YFM.
[8] abbreviates: Table ABC: Biological Results, species BAW, read-out: BAW.
[9] abbreviates: Green Peach Aphid, Table ABC / ABC-DP rating, read-out: GPA rating.
[10] abbreviates: Cabbage Looper, Table ABC / ABC-DP rating, read-out: CL rating.
Setting [11] is: Beet Armyworm, Table ABC / ABC-DP rating, read-out: BAW rating.
Where [12] appears, read: Green Peach Aphid, rating class, read-out: GPA.
The mark [13] stands for this setting: Cabbage Looper, rating class, read-out: CL.
The mark [14] stands for this setting: Yellow Fever Mosquito, rating class.
[15] abbreviates: Beet Armyworm, rating class, read-out: BAW.

With `O=C(Nc1cc(NC(=O)C(F)(F)Cl)c(F)cc1F)c1cc(NC(=O)[C@H]2[C@H](c3ccc(Cl)c(Cl)c3)C2(Cl)Cl)ccc1Cl` [F1243, 2-Chloro-N-(5-(2-chloro-2,2-difluoroacetamido)-2,4-difluorophenyl)-5-((1R,3R)-2,2-dichloro-3-(3,4-dichlorophenyl)cyclopropane-1-carboxamido)benzamide], in experiment [1] (setting [5]), the pest or weed control at 200 µg/mL lay within 0 to 80%. The pest or weed control at 50 µg/cm2 in experiment [2] (setting [6]) and in experiment [4] (setting [8]) was 50 to 100% in each case. Moreover, the YFM result in experiment [3] (setting [7]) is “A (80–100)”.
`CC(F)(F)CNC(=O)c1cc(NC(=O)[C@H]2[C@H](c3cc(Cl)cc(Cl)c3)C2(Cl)Cl)ccc1Cl` (relative stereo) [F2075, trans-2-Chloro-5-(2,2-dichloro-3-(3,5-dichlorophenyl)cyclopropane-1-carboxamido)-N-(2,2-difluoropropyl)benzamide]: the pest or weed control at 200 µg/mL in experiment [1] (setting [9]) fell in the range of 80 to 100%. Also, the pest or weed control at 50 µg/cm2 in experiment [2] (setting [10]) and in experiment [4] (setting [11]) was 50 to 100% in each case. Also, in experiment [3] (Yellow Fever Mosquito), the YFM rating result is “B (More than 0 – Less than 80)”.
With `O=C(Nc1c(F)ccc(NC(=O)C(F)F)c1F)c1cc(NC(=O)[C@H]2[C@H](c3cc(Cl)cc(Cl)c3)C2(Cl)Cl)ccc1Cl` [F1241, 2-Chloro-5-((1R,3R)-2,2-dichloro-3-(3,5-dichlorophenyl)cyclopropane-1-carboxamido)-N-(3-(2,2-difluoroacetamido)-2,6-difluorophenyl)benzamide], the pest or weed control at 200 µg/mL in experiment [1] (setting [5]) is 80 to 100%. The pest or weed control at 50 µg/cm2 in experiment [2] (setting [6]) and in experiment [4] (setting [8]) was 50 to 100% throughout. Moreover, the YFM result in experiment [3] (setting [7]) is reported as “A (80–100)”.
Regarding `COCCC(=O)Nc1c(F)ccc(NC(=O)c2cc(NC(=O)[C@H]3[C@H](c4ccc(F)c(C(F)(F)F)c4)C3(Cl)Cl)ccc2Cl)c1F` [F1489, 2-Chloro-5-((1R,3R)-2,2-dichloro-3-(4-fluoro-3-(trifluoromethyl)phenyl)cyclopropane-1-carboxamido)-N-(2,4-difluoro-3-(3-methoxypropanamido)phenyl)benzamide], the pest or weed control at 200 µg/mL in experiment [1] (setting [12]) was in the range of 0 to 80%. Moreover, the pest or weed control at 50 µg/cm2 in experiment [2] (setting [13]) and in experiment [4] (setting [15]) was 50 to 100% in each case. Further, the YFM result in experiment [3] (setting [14]) is “A (80–100)”.
As to `O=C(Nc1ccc(F)c(NC(=O)C(F)(F)F)c1F)c1cc(NC(=O)[C@H]2[C@H](c3ccc(F)c(Cl)c3)C2(Cl)Cl)ccc1Cl` [F1695, 2-Chloro-5-((1R,3R)-2,2-dichloro-3-(3-chloro-4-fluorophenyl)cyclopropane-1-carboxamido)-N-(2,4-difluoro-3-(2,2,2-trifluoroacetamido)phenyl)benzamide], the pest or weed control at 200 µg/mL in experiment [1] (setting [12]) is 80 to 100%. Besides, the pest or weed control at 50 µg/cm2 in experiment [2] (setting [13]) and in experiment [4] (setting [15]) was 50 to 100% in each case. Also, the YFM entry in experiment [3] (setting [14]) was “B (More than 0 – Less than 80)”.
Regarding `Nc1ccc(F)c(NC(=O)c2cc(NC(=O)[C@H]3[C@H](c4ccc(Cl)c(Cl)c4)C3(Cl)Cl)ccc2Cl)c1F` [F1250, N-(3-Amino-2,6-difluorophenyl)-2-chloro-5-((1R,3R)-2,2-dichloro-3-(3,4-dichlorophenyl)cyclopropane-1-carboxamido)benzamide], in experiment [1] (setting [5]), the pest or weed control at 200 µg/mL was in the range of 80 to 100%. The pest or weed control at 50 µg/cm2 in experiment [2] (setting [6]) and in experiment [4] (setting [8]) was 50 to 100% throughout. Further, in experiment [3] (setting [7]), the YFM entry was “A (80–100)”.
As for `CN(C(=O)C(F)F)c1c(F)ccc(NC(=O)c2cc(NC(=O)[C@H]3[C@H](c4ccc(F)c(Cl)c4)C3(Cl)Cl)ccc2Cl)c1F` [F1460, 2-Chloro-5-((1R,3R)-2,2-dichloro-3-(3-chloro-4-fluorophenyl)cyclopropane-1-carboxamido)-N-(3-(2,2-difluoro-N-methylacetamido)-2,4-difluorophenyl)benzamide], the pest or weed control at 200 µg/mL in experiment [1] (setting [12]) lay within 80 to 100%. Besides, the pest or weed control at 50 µg/cm2 in experiment [2] (setting [13]) and in experiment [4] (setting [15]) was 50 to 100% each time. For the same compound, the YFM result in experiment [3] (setting [14]) was “A (80–100)”.
With `O=C(NCC(F)(F)F)c1c(Cl)ccc(NC(=O)[C@H]2[C@H](c3ccc(F)c(Cl)c3)C2(Cl)Cl)c1Cl` (relative stereo) [F2020, trans-2,6-Dichloro-3-(2,2-dichloro-3-(3-chloro-4-fluorophenyl)cyclopropane-1-carboxamido)-N-(2,2,2-trifluoroethyl)benzamide], in experiment [1] (setting [9]), the pest or weed control at 200 µg/mL lay within 0 to 80%. For the same compound, the pest or weed control at 50 µg/cm2 in experiment [2] (setting [10]) and in experiment [4] (setting [11]) was 50 to 100% in each case. Besides, the YFM rating entry in experiment [3] (Yellow Fever Mosquito) is “A (80–100)”.
For `Cc1c(Cl)cc(NC(=O)[C@H]2[C@H](c3ccc(F)c(Cl)c3)C2(Cl)Cl)cc1C(=O)NCC(F)(F)F` (relative stereo) [F2042, trans-3-Chloro-5-(2,2-dichloro-3-(3-chloro-4-fluorophenyl)cyclopropane-1-carboxamido)-2-methyl-N-(2,2,2-trifluoroethyl)benzamide], in experiment [1] (setting [9]), the pest or weed control at 200 µg/mL was in the range of 80 to 100%. Also, the pest or weed control at 50 µg/cm2 in experiment [2] (setting [10]) and in experiment [4] (setting [11]) was 50 to 100% in each case. For the same compound, the YFM rating result in experiment [3] (Yellow Fever Mosquito) is listed as “A (80–100)”.
Turning to `CC(=O)Nc1c(F)ccc(NC(=O)c2cc(NC(=O)[C@H]3[C@H](c4ccc(F)c(Cl)c4)C3(Cl)Cl)ccc2Cl)c1F` [F1694, N-(3-Acetamido-2,4-difluorophenyl)-2-chloro-5-((1R,3R)-2,2-dichloro-3-(3-chloro-4-fluorophenyl)cyclopropane-1-carboxamido)benzamide], in experiment [1] (setting [12]), the pest or weed control at 200 µg/mL was in the range of 80 to 100%. Moreover, the pest or weed control at 50 µg/cm2 in experiment [2] (setting [13]) and in experiment [4] (setting [15]) was 50 to 100% each time. Besides, in experiment [3] (setting [14]), the YFM entry is recorded as “A (80–100)”.
Regarding `O=C(Nc1ccc(F)cc1)c1c(Cl)ccc(NC(=O)[C@H]2[C@H](c3ccc(F)c(Cl)c3)C2(Cl)Cl)c1Cl` (relative stereo) [F1103, trans-2,6-Dichloro-3-(2,2-dichloro-3-(3-chloro-4-fluorophenyl)cyclopropane-1-carboxamido)-N-(4-fluorophenyl)benzamide], the pest or weed control at 200 µg/mL in experiment [1] (setting [5]) lay within 0 to 80%. Moreover, the pest or weed control at 50 µg/cm2 in experiment [2] (setting [6]) and in experiment [4] (setting [8]) was 50 to 100% each time. Also, the YFM entry in experiment [3] (setting [7]) is recorded as “A (80–100)”.
As for `O=C(Nc1ccc(F)c(NC(=O)C(F)(F)F)c1F)c1cc(NC(=O)[C@H]2[C@H](c3ccc(Cl)c(C(F)(F)F)c3)C2(Cl)Cl)ccc1Cl` [F1656, 2-Chloro-5-((1R,3R)-2,2-dichloro-3-(4-chloro-3-(trifluoromethyl)phenyl)cyclopropane-1-carboxamido)-N-(2,4-difluoro-3-(2,2,2-trifluoroacetamido)phenyl)benzamide], the pest or weed control at 200 µg/mL in experiment [1] (setting [12]) lay in the range of 0 to 80%. Further, the pest or weed control at 50 µg/cm2 in experiment [2] (setting [13]) and in experiment [4] (setting [15]) was 50 to 100% each time. Also, in experiment [3] (setting [14]), the YFM entry was “A (80–100)”.
Turning to `O=C(Nc1ccc(F)cc1F)c1cc(NC(=O)[C@H]2[C@H](c3cc(Cl)c(Cl)c(Br)c3)C2(Cl)Cl)ccc1Cl` (relative stereo) [F1007, trans-5-(3-(3-Bromo-4,5-dichlorophenyl)-2,2-dichlorocyclopropane-1-carboxamido)-2-chloro-N-(2,4-difluorophenyl)benzamide], the pest or weed control at 200 µg/mL in experiment [1] (setting [5]) lay in the range of 80 to 100%. The pest or weed control at 50 µg/cm2 in experiment [2] (setting [6]) and in experiment [4] (setting [8]) was 50 to 100% throughout. Also, in experiment [3] (setting [7]), the YFM entry is reported as “A (80–100)”.
